Results from patent US20070039241A1, “Floatable granular substrate for culturing plant material” (GSF - Forschungszentrum fur Umwelt und Gesundheit, priority 2003, published 2007).

Tested on: barley seedlings
Assay: Heavy metal uptake of barley seedlings on floating culture substrate or agar substrate (ICP-MS of leaves and roots)
Type: in vivo, Hordeum vulgare cv. Barke
Settings: for Concentration of heavy metal ions in barley seedlings, Shoot, Agar: grown on agar; for Concentration of heavy metal ions in barley seedlings, Shoot, Agar / Concentration of heavy metal ions in barley seedlings, Root, Floatable Substrate / Concentration of heavy metal ions in barley seedlings, Shoot, Floatable Substrate: 6 day old plants; for Concentration of heavy metal ions in barley seedlings, Root, Floatable Substrate / Concentration of heavy metal ions in barley seedlings, Shoot, Floatable Substrate: grown on floatable substrate; for Factor by which concentration in the roots was increased compared to shoot tissue: seedlings grown on floatable substrate
Procedure: MS-basal Medium or Hoagland's medium was supplemented with heavy metals as follows: stock solutions of Hg Cl2 (0.1 M) or Cd(NO3)2•4H2O (0.1 M) were applied to the autoclaved medium when it had cooled to about 55° C. such that final heavy metal-ion concentrations of 10, 20, 30 and 40 μM were obtained.
Agar culturing substrate was prepared by adding 1.5 wt/vol % agar (Sigma) to Hoagland's or MS-basal medium. After heating to 100° C., respective amounts of heavy metal salts were added when the medium had cooled down to […]. Then the mixture was poured into Phytotray II™ culture vessels (Sigma) and left to cool for subsequent use.
Barley caryopses prepared and seeded onto a floatable substrate layer as in Example 1. Alternatively, the caryopses were directly placed on culturing agar as described above.
Seedlings were grown as described, and leaves and roots of 6 day old plants were harvested and weighed to determine the fresh weight. Samples were shock-frozen in liquid nitrogen and stored at −80° C.
Total mercury and cadmium content of leaves and roots was determined by electrothermal vaporization inductively coupled plasma-mass spectrometry (Michalke et al., 1997).

| Structure (SMILES) | Concentration of heavy metal ions in barley seedlings, Shoot, Agar (added concentration 10 μM) [µM] | Concentration of heavy metal ions in barley seedlings, Shoot, Agar (added concentration 20 μM) [µM] | Concentration of heavy metal ions in barley seedlings, Shoot, Agar (added concentration 30 μM) [µM] | Concentration of heavy metal ions in barley seedlings, Shoot, Agar (added concentration 40 μM) [µM] | Concentration of heavy metal ions in barley seedlings, Root, Floatable Substrate (added concentration 10 μM) [µM] | Concentration of heavy metal ions in barley seedlings, Shoot, Floatable Substrate (added concentration 10 μM) [µM] | Concentration of heavy metal ions in barley seedlings, Root, Floatable Substrate (added concentration 20 μM) [µM] | Concentration of heavy metal ions in barley seedlings, Shoot, Floatable Substrate (added concentration 20 μM) [µM] | Concentration of heavy metal ions in barley seedlings, Root, Floatable Substrate (added concentration 30 μM) [µM] | Concentration of heavy metal ions in barley seedlings, Shoot, Floatable Substrate (added concentration 30 μM) [µM] | Concentration of heavy metal ions in barley seedlings, Root, Floatable Substrate (added concentration 40 μM) [µM] | Concentration of heavy metal ions in barley seedlings, Shoot, Floatable Substrate (added concentration 40 μM) [µM] | Factor by which concentration in the roots was increased compared to shoot tissue |
| --- | --- | --- | --- | --- | --- | --- | --- | --- | --- | --- | --- | --- | --- |
| O.O.O.O.O=[N+]([O-])[O-].O=[N+]([O-])[O-].[Cd+2] [Cd^2+, Cd(NO3)2•4H2O] | 15 | 21 | 41 | 53 | 479 | 4 | 1270 | 27 | 1450 | 27 | 2880 | 59 | 60 |
| [Cl][Hg][Cl] [Hg^2+, Hg Cl2] | 62 | 171 | 254 | 252 | 697 | 54 | 851 | 144 | 2060 | 239 | 2430 | 296 | 10 |
